Reference: US20170369470A1, “Cyclic Compounds and Uses Thereof” (Karyopharm Therapeutics Inc., priority 2014, published 2017)

Legend:
Format in all cases: cell-based
MS751 cells = assay: MTT cell proliferation assay, MS751 cells; settings: MS751 cells (human cervix squamous cell carcinoma metastasis); incubation approximately 64-72 hours; read-out: MTT Assay IC50 MS 751
Method: (§1) The MTT cell proliferation assay was used to study the cytotoxic properties of the compounds. The assay was performed according to the method described by Roche Molecular Biochemicals, with minor modifications. The assay is based on the cleavage of the tetrazolium salt, MTT, in the presence of an electron-coupling reagent. The water-insoluble formazan salt produced must be solubilized in an additional step. Cells grown in a 96-well tissue culture plate were incubated with the MTT solution for approximately 4 hours. After this incubation period, a water-insoluble formazan dye formed. After solubilization, the formazan dye was quantitated using a scanning multi-well spectrophotometer (ELISA reader). […] The cells were seeded at 5,000-10,000 cells in each well of 96-well plate in 100 μL of fresh culture medium and were allowed to attach overnight. The stock solutions of the compounds were diluted in 100 μL cell culture medium to obtain eight concentrations of each test compound, ranging from 1 nM to 30 μM. […] All optical densities were measured at 490 nm using a Vmax Kinetic Microplate Reader (Molecular Devices). In most cases, the assay was performed in duplicate and the results were presented as a mean percent inhibition to the negative control±SE. The following formula was used to calculate the percent of inhibition: Inhibition (%)=(1−(ODo/OD))×100.
(§2) The compounds were tested against MS751, Z138 and 3T3 cells. The MS751 cell line is derived from a metastasis to lymph node of human cervix from a patient diagnosed with squameous cell carcinoma of the cervix. The Z138 cell line is a mature B-cell acute lymphoblastic leukemia cell line derived from a patient with chronic lumphocytic leukemia. 3T3 cells are standard fibroblast cells; they were originally isolated from Swiss mouse embryo tissue.

Z138 cells = assay: MTT cell proliferation assay, Z138 cells; settings: Homo sapiens, Z-138; Z138 cells (mantle cell lymphoma line); incubation approximately 64-72 hours
Method: as §1, §2

3T3 cells = assay: MTT cell proliferation assay, 3T3 cells; settings: NIH3T3; 3T3 fibroblast cells (Swiss mouse embryo); incubation approximately 64-72 hours
Method: as §1, §2

| Structure (SMILES) | IC50 (MS751 cells) [µM] | IC50 (Z138 cells) [µM] | IC50 (3T3 cells) [µM] |
| --- | --- | --- | --- |
| Nc1ccc(/C=C/C(=O)NCc2cc3cc(-c4ccc(C(=O)N5CCOCC5)cc4)cc(Cl)c3s2)cn1 [compound 500, (E)-3-(6-aminopyridin-3-yl)-N-((7-chloro-5-(4-(morpholine-4-carbonyl)phenyl)benzo[b]thiophen-2-yl)methyl)acrylamide] | < 1 | < 1 | > 10 |
| Nc1ccc(/C=C/C(=O)NCc2cc3cc(-c4ccc(C(=O)N5CCC(F)(F)CC5)cn4)cc(C(F)(F)F)c3[nH]2)cn1 [compound 501, (E)-3-(6-aminopyridin-3-yl)-N-((5-(5-(4,4-difluoropiperidine-1-carbonyl)pyridin-2-yl)-7-(trifluoromethyl)-1H-indol-2-yl)methyl)acrylamide] | > 10 | > 10 | > 10 |
| Cn1c(CNC(=O)/C=C/c2ccc(N)nc2)cc2cc(-c3ccc(C(=O)N4CCC(F)(F)CC4)cn3)cc(C(F)(F)F)c21 [compound 502, (E)-3-(6-aminopyridin-3-yl)-N-((5-(5-(4,4-difluoropiperidine-1-carbonyl)pyridin-2-yl)-1-methyl-7-(trifluoromethyl)-1H-indol-2-yl)methyl)acrylamide] | > 10 | > 10 | > 10 |
| Nc1ccc(/C=C/C(=O)NCc2cc3cc(-c4ccc(C(=O)N5CCC(F)(F)CC5)cn4)cc(C(F)(F)F)c3s2)cn1 [compound 503, (E)-3-(6-aminopyridin-3-yl)-N-((5-(5-(4,4-difluoropiperidine-1-carbonyl)pyridin-2-yl)-7-(trifluoromethyl)benzo[b]thiophen-2-yl)methyl)acrylamide] | 1 to 5 | 1 to 5 | > 10 |
| Nc1ccc(/C=C/C(=O)NCc2cc3cc(-c4ccc(C(=S)N5CCC(F)(F)CC5)cn4)cc(C(F)(F)F)c3s2)cn1 [compound 504, (E)-3-(6-aminopyridin-3-yl)-N-((5-(5-(4,4-difluoropiperidine-1-carbonothioyl)pyridin-2-yl)-7-(trifluoromethyl)benzo[b]thiophen-2-yl)methyl)acrylamide] | < 1 | < 1 | > 10 |
| Nc1ccc(/C=C/C(=O)NCc2cc3cc(-c4ccc(C(=O)N5CCC(O)(C(F)(F)F)CC5)cn4)cc(C(F)(F)F)c3s2)cn1 [compound 505, (E)-3-(6-aminopyridin-3-yl)-N-((5-(5-(4-hydroxy-4-(trifluoromethyl)piperidine-1-carbonyl)pyridin-2-yl)-7-(trifluoromethyl)benzo[b]thiophen-2-yl)methyl)acrylamide] | 1 to 5 | 1 to 5 | > 10 |
| Nc1ccc(/C=C/C(=O)NCc2cc3cc(-c4ccc(C(=O)N5CCOCC5)cn4)cc(C(F)(F)F)c3s2)cn1 [compound 506, (E)-3-(6-aminopyridin-3-yl)-N-((5-(5-(morpholine-4-carbonyl)pyridin-2-yl)-7-(trifluoromethyl)benzo[b]thiophen-2-yl)methyl)acrylamide] | 1 to 5 | 1 to 5 | > 10 |
| CC1(F)CCN(C(=O)c2ccc(-c3cc(C(F)(F)F)c4sc(CNC(=O)/C=C/c5ccc(N)nc5)cc4c3)nc2)C1 (stereo not drawn) [compound 507, (E)-3-(6-aminopyridin-3-yl)-N-((5-(5-(3-fluoro-3-methylpyrrolidine-1-carbonyl)pyridin-2-yl)-7-(trifluoromethyl)benzo[b]thiophen-2-yl)methyl)acrylamide] | 1 to 5 | 1 to 5 | > 10 |
| CC1(C)COCCN1C(=O)c1ccc(-c2cc(C(F)(F)F)c3sc(CNC(=O)/C=C/c4ccc(N)nc4)cc3c2)nc1 [compound 508, (E)-3-(6-aminopyridin-3-yl)-N-((5-(5-(3,3-dimethylmorpholine-4-carbonyl)pyridin-2-yl)-7-(trifluoromethyl)benzo[b]thiophen-2-yl)methyl)acrylamide] | 1 to 5 | 1 to 5 | > 10 |
| Nc1ccc(/C=C/C(=O)NCc2cc3cc(-c4ccc(C(=O)N5CCC(O)(C(F)(F)F)C5)cn4)cc(C(F)(F)F)c3s2)cn1 (stereo not drawn) [compound 509, (E)-3-(6-aminopyridin-3-yl)-N-((5-(5-(3-hydroxy-3-(trifluoromethyl)pyrrolidine-1-carbonyl)pyridin-2-yl)-7-(trifluoromethyl)benzo[b]thiophen-2-yl)methyl)acrylamide] | 1 to 5 | < 1 | > 10 |
| Nc1ccc(/C=C/C(=O)NCc2cc3cc(-c4ccc(C(=O)N5CCC(F)(F)C5)cn4)cc(C(F)(F)F)c3s2)cn1 [compound 510, (E)-3-(6-aminopyridin-3-yl)-N-((5-(5-(3,3-difluoropyrrolidine-1-carbonyl)pyridin-2-yl)-7-(trifluoromethyl)benzo[b]thiophen-2-yl)methyl)acrylamide] | 1 to 5 | 1 to 5 | > 10 |
| Nc1ccc(/C=C/C(=O)NCc2cc3cc(-c4ccc(C(=O)N5CC6(COC6)C5)cn4)cc(C(F)(F)F)c3s2)cn1 [compound 511, (E)-N-((5-(5-(2-oxa-6-azaspiro[3.3]heptane-6-carbonyl)pyridin-2-yl)-7-(trifluoromethyl)benzo[b]thiophen-2-yl)methyl)-3-(6-aminopyridin-3-yl)acrylamide] | < 1 | < 1 | > 10 |
| Nc1ccc(/C=C/C(=O)NCc2cc3cc(-c4ccc(C(=O)N5CC(F)(F)C5)cn4)cc(C(F)(F)F)c3s2)cn1 [compound 512, (E)-3-(6-aminopyridin-3-yl)-N-((5-(5-(3,3-difluoroazetidine-1-carbonyl)pyridin-2-yl)-7-(trifluoromethyl)benzo[b]thiophen-2-yl)methyl)acrylamide] | 1 to 5 | < 1 | 5 to 10 |
| Nc1ccc(/C=C/C(=O)NCc2cc3cc(-c4ccc(C(=O)N5CC[C@H](F)C5)cn4)cc(C(F)(F)F)c3s2)cn1 [compound 513, (S,E)-3-(6-aminopyridin-3-yl)-N-((5-(5-(3-fluoropyrrolidine-1-carbonyl)pyridin-2-yl)-7-(trifluoromethyl)benzo[b]thiophen-2-yl)methyl)acrylamide] | 1 to 5 | 1 to 5 | 5 to 10 |
| CC1(C)CN(C(=O)c2ccc(-c3cc(C(F)(F)F)c4sc(CNC(=O)/C=C/c5ccc(N)nc5)cc4c3)nc2)CCO1 [compound 514, (E)-3-(6-aminopyridin-3-yl)-N-((5-(5-(2,2-dimethylmorpholine-4-carbonyl)pyridin-2-yl)-7-(trifluoromethyl)benzo[b]thiophen-2-yl)methyl)acrylamide] | 1 to 5 | < 1 | > 10 |
| Nc1ccc(/C=C/C(=O)NCc2cc3cc(-c4ccc(C(=O)N5CC6(C5)CC(F)(F)C6)cn4)cc(C(F)(F)F)c3s2)cn1 [compound 515, (E)-3-(6-aminopyridin-3-yl)-N-((5-(5-(6,6-difluoro-2-azaspiro[3.3]heptane-2-carbonyl)pyridin-2-yl)-7-(trifluoromethyl)benzo[b]thiophen-2-yl)methyl)acrylamide] | < 1 | < 1 | > 10 |
| CC1(O)CCN(C(=O)c2ccc(-c3cc(C(F)(F)F)c4sc(CNC(=O)/C=C/c5ccc(N)nc5)cc4c3)nc2)CC1 [compound 516, (E)-3-(6-aminopyridin-3-yl)-N-((5-(5-(4-hydroxy-4-methylpiperidine-1-carbonyl)pyridin-2-yl)-7-(trifluoromethyl)benzo[b]thiophen-2-yl)methyl)acrylamide] | 1 to 5 | < 1 | > 10 |
| Nc1ccc(/C=C/C(=O)NCc2cc3cc(-c4ccc(C(=O)N5CCC(F)CC5)cn4)cc(C(F)(F)F)c3s2)cn1 [compound 517, (E)-3-(6-aminopyridin-3-yl)-N-((5-(5-(4-fluoropiperidine-1-carbonyl)pyridin-2-yl)-7-(trifluoromethyl)benzo[b]thiophen-2-yl)methyl)acrylamide] | 1 to 5 | 1 to 5 | > 10 |
| Nc1ccc(/C=C/C(=O)NCc2cc3cc(-c4ccc(C(=O)N5CCC(F)(F)CC5)cc4)cc(C(F)(F)F)c3s2)cn1 [compound 518, (E)-3-(6-aminopyridin-3-yl)-N-((5-(4-(4,4-difluoropiperidine-1-carbonyl)phenyl)-7-(trifluoromethyl)benzo[b]thiophen-2-yl)methyl)acrylamide] | 1 to 5 | 1 to 5 | > 10 |
| Nc1ccc(/C=C/C(=O)NCc2cc3cc(-c4ccc(C(=O)N5CC6(COC6)C5)cc4)cc(C(F)(F)F)c3s2)cn1 [compound 519, (E)-N-((5-(4-(2-oxa-6-azaspiro[3.3]heptane-6-carbonyl)phenyl)-7-(trifluoromethyl)benzo[b]thiophen-2-yl)methyl)-3-(6-aminopyridin-3-yl)acrylamide] | < 1 | < 1 | > 10 |
